Results reported in ChEMBL document CHEMBL1129778, “Design and synthesis of bisubstrate analogues for 3-hydroxy-3-methyl-glutaryl coenzyme a reductase” (Bioorg Med Chem Lett, 1996).
The source made the active and inactive calls. The calls are words filed in the database; no cut-off is given here.

Target: T1, 3-hydroxy-3-methylglutaryl-coenzyme A reductase (Rattus norvegicus) (UniProt P51639)
T1 sequence (whole entry): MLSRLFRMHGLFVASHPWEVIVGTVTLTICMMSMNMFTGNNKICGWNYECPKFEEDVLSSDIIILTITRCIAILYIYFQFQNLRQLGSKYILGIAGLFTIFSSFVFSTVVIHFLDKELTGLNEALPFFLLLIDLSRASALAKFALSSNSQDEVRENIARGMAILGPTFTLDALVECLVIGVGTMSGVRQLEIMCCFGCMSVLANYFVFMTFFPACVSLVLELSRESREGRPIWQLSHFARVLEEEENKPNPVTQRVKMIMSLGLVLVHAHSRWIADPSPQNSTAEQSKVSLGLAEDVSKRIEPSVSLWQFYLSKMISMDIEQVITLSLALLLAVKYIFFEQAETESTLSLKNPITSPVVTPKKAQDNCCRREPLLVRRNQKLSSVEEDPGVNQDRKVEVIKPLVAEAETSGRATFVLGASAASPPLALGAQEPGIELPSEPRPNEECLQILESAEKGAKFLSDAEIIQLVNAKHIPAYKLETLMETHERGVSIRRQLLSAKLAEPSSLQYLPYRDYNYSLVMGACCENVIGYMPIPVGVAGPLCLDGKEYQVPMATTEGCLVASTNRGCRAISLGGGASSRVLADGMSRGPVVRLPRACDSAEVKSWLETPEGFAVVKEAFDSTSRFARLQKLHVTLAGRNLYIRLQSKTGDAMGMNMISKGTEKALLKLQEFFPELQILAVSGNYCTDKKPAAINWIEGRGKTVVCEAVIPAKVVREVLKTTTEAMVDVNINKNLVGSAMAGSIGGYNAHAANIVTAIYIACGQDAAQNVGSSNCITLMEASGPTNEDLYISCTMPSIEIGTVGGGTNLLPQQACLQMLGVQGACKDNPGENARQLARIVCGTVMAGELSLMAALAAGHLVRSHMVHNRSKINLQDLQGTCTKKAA
Experiment: Biological activity against rat liver 3-hydroxy-3-methyl glutaryl coenzyme A reductase (HMGR) at a concentration of 10E-4 M; No inhibition
Type: tissue-based

SMILES	Activity
COC(=O)C[C@H](O)C[C@@H](O)Cc1ccncc1C(N)=O	inactive
COC(=O)C[C@H](O)C[C@H](O)Cc1ccncc1C(N)=O	inactive
